From US20200206198A1, “CFTR CHANNEL ACTIVATOR FOR USE IN THE TREATMENT AND/OR PREVENTION OF GLUTEN SENSITIVITY CONDITIONS” (priority 2017, published 2020)

Test system: PBMC collected from celiac patients
Assay: Bidimensional co-culture of Caco-2 cells and PBMC from celiac patients
Assay type: cell-based, human
Procedure: To translate our findings into the relevant clinical setting, we determined whether CFTR potentiators would prevent the HLA-restricted immune response to gliadin by peripheral blood mononuclear cells (PBMC) collected from celiac patients. PBMC collected from 6 celiac patients and 4 healthy controls, were cultured in the lower compartment of a bidimensional co-culture model in which confluent Caco-2 cells were placed in the upper compartment. Then, Caco-2 cells were challenged with PT gliadin or with a combination of P31-43 and P57-68 (or P57-68 alone as a negative control), as described, and IFN-γ and IL-10 were quantified in the supernatants from the lower compartment.
Five ml of peripheral blood have been withdrawn from 8 untreated celiac patients (females and males, age range 8-25 years) and from 3 DQ2+ positive not CD affected controls (healthy first-grade relatives of celiac patients). The Ethics Committee of ISS approved the protocol (# CE/12/341), and patients or patients' parents signed the informed consent. Peripheral blood mononuclear cells were isolated using lympholite (Cederlane, UK) density gradient overlaid by heparin blood diluted 1:1 in PBS and centrifuged (20 min at 900 rpm). After being washed three times, PBMCs were resuspended in complete RPMI 1640 supplemented with 25 mM HEPES, 10% (v/v) heat-inactivated FBS, 100 U/ml penicillin, […] streptomycin, and 1% 2 mM 1-glutamine.
For transwell experiments using polarized Caco-2 cells, 3 weeks prior to the experiment, Caco-2 cells were seeded at a density of 80×10^3 cells×cm^2 on 0.4-μm, 1-cm^2 tissue culture inserts (Costar, Corning Incorporated). Transwell cultures (12-well) with confluent Caco-2 monolayers were used for co-culture with 1 ml PBMC (1.5×10^6 cells/ml) using PBMC medium and kept in an incubator at 37° C. and 5% CO2. Cells were allowed to settle for 1 h before the starting of the experiment. The permeability of the epithelial monolayer was assessed just before the experiments, measuring the transwell electrical resistance between the upper and lower compartments. […]

CC(C)(C)c1cc(C(C)(C)C)c(NC(=O)c2c[nH]c3ccccc3c2=O)cc1O [VX-770, N-(2,4-di-tert-butyl-5-hydroxyphenyl)-4-oxo-1,4-dihydroquinoline-3-carboxamide]
effect on IFN-γ production induced by the combination of peptides (celiac PBMC / Caco-2 co-culture): prevented the production of IFN-γ | IL-10 levels (celiac PBMC / Caco-2 co-culture, p<0.01): restored IL-10 levels | effect on IL-15 accumulation in the lower compartment (p<0.001 vs peptide combination): prevented
